Data reported in ChEMBL document CHEMBL3352774 (J Nat Prod, 2014).
One block for each compound: values may come before it.

Key:
[1] = molecular target: Xanthine dehydrogenase/oxidase (Bos taurus, UniProt P80457); assay: Inhibition of bovine milk xanthine oxidoreductase by spectrophotometry
Xanthine dehydrogenase = molecular target: T1, Xanthine dehydrogenase (Rhodobacter capsulatus, UniProt O54050); assay: Inhibition of Rhodobacter capsulatus xanthine dehydrogenase
T1 sequence (O54050 whole entry): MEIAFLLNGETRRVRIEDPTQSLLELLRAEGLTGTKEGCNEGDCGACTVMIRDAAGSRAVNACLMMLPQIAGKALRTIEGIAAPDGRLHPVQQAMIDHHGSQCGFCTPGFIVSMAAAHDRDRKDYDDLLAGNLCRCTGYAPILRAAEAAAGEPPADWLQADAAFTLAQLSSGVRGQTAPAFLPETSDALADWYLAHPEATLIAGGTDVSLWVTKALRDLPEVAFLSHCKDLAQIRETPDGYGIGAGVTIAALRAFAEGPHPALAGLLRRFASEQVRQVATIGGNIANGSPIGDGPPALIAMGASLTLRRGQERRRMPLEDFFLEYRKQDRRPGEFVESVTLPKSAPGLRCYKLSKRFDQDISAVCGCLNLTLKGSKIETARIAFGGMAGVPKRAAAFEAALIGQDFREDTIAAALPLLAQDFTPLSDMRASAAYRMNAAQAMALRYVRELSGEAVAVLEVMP

[2] = molecular target: T2, Xanthine dehydrogenase/oxidase (Homo sapiens, UniProt P47989); assay: Inhibition of human xanthine oxidase
[3] = molecular target: T2, Xanthine dehydrogenase/oxidase; assay: Inhibition of oxidized form of human xanthine oxidase

Chain of Xanthine dehydrogenase/oxidase (Bos taurus, UniProt P80457) (P80457 whole entry): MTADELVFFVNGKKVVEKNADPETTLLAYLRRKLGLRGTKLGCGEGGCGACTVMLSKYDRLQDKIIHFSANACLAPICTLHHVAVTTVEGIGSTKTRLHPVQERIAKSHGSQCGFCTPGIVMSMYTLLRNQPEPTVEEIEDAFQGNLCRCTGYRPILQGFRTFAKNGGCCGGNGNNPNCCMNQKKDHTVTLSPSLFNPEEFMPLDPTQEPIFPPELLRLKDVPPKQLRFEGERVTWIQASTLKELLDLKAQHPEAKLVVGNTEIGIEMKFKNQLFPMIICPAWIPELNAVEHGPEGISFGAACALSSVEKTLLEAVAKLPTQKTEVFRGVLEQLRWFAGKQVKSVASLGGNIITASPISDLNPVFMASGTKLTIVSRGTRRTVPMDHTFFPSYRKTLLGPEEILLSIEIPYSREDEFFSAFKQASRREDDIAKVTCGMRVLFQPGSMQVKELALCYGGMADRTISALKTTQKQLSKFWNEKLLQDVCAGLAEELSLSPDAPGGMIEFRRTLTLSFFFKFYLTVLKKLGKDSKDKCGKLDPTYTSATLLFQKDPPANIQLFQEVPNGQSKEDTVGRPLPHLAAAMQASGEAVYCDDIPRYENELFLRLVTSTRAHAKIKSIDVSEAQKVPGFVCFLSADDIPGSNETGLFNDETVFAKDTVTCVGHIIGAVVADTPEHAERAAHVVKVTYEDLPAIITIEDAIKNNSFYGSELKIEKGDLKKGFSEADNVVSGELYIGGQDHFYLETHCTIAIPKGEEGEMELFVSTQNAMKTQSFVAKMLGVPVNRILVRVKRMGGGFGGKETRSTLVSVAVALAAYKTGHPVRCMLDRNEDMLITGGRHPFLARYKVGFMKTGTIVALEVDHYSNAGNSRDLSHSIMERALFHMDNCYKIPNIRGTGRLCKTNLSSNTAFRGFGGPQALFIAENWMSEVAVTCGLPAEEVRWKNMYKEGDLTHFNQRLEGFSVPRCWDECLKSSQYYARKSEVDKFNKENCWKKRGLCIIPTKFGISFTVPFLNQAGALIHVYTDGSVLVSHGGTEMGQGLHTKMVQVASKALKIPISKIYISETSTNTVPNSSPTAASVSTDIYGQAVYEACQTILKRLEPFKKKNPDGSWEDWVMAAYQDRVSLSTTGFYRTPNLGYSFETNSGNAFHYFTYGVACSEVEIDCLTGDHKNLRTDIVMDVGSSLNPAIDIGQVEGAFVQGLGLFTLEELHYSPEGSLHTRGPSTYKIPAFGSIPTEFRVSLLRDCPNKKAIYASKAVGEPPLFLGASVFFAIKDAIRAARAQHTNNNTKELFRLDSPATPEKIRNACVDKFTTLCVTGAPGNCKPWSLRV
T2 sequence (P47989 whole entry): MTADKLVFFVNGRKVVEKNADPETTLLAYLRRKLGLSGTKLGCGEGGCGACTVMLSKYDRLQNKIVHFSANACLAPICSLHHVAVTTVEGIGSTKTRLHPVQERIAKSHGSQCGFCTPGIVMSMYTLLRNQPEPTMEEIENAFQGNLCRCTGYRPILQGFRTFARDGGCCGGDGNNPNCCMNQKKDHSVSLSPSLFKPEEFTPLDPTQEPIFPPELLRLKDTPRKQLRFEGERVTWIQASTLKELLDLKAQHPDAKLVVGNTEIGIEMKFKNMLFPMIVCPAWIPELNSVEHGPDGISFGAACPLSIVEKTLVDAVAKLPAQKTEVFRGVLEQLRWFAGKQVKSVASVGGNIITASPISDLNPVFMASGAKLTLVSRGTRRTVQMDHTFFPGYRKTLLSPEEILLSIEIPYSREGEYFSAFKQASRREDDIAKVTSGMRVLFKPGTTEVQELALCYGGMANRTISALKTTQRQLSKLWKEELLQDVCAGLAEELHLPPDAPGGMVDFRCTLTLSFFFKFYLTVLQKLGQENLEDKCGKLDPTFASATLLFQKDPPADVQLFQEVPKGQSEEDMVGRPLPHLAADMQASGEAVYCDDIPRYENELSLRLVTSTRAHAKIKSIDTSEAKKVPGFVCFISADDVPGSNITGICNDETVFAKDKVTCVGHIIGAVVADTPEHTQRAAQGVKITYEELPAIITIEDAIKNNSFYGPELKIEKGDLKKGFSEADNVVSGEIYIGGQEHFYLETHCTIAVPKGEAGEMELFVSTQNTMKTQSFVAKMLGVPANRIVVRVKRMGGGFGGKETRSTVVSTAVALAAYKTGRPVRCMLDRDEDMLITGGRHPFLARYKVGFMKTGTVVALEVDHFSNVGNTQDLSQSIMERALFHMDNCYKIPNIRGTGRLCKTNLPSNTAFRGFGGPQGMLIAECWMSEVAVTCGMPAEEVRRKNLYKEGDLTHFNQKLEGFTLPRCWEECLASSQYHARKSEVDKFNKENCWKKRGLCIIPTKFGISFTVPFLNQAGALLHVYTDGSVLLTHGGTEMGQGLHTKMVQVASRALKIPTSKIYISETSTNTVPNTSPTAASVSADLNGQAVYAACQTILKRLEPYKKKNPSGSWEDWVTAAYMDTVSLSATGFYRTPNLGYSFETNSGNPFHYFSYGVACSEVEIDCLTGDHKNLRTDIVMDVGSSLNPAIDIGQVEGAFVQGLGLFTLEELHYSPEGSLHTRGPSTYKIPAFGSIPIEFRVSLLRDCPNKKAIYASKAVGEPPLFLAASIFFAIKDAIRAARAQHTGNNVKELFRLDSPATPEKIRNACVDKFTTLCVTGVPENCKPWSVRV

Structure (SMILES): O=c1c(O)c(-c2ccc(O)c(O)c2)oc2cc(O)cc(O)c12 [QUERCETIN]
inhibition (INH) ([1]; cattle): Active

Ki [1]: 1.78 nM | Ki (Xanthine dehydrogenase): 104 nM
Structure (SMILES): Nc1nc2ncc(C=O)nc2c(=O)[nH]1

Ki [2]: 35 nM | Ki [3]: 1000 nM
Structure (SMILES): O=c1[nH]c(=O)c2c[nH]nc2[nH]1 [OXYPURINOL]
